Where a name gives a salt, the structure may show the parent alone.
Key:
[1] = system: SD female rats; experiment: Measurement of urethral resistance increasing effect (leak point pressure), intravenous administration; assay type: in vivo; conditions: rat, 0.3 mg/kg and 1.0 mg/kg, 10 min after administration, compared to vehicle (Williams' test)
Description: Experimental Example 4 Measurement of Urethral Resistance Increasing Effect
The urethral resistance increasing effect in rat was measured by a modified method of Matsumoto et al. (WO2009/063992) as follows. That is, SD female rats (CLEA Japan, Inc.) were anesthetized with isoflurane (1.0%; Abbott), and the spinal cord was transected at Th8-9 to avoid the voiding reflex. After laparotomy, an intravesical pressure measurement catheter and a saline infusion catheter (PE-100; Clay Adams) were inserted into the bladder. Thereafter, the abdomen of the rat was closed with aronalpha A “Sankyo” (Daiichi Sankyo). […] The intravesical pressure measurement catheter was connected to a computer via a pressure transducer (REF685640; Nihon Koden), an amplifier (RPM-6008M; Nihon Koden), and a multi-channel data analyzer (MP150; Biopack), and changes in the intravesical pressure were recorded on a hard disc at a frequency of 100 samples/sec. […] The LPP value (Pre value) was measured, a drug was intravenously administered, and the measurement of LPP value (Post value) was again started 10 min after administration. […]
The compound of Example 6 (0.3 mg/kg), the compound of Example 6 (1.0 mg/kg) and the vehicle were administered to the rats, and the urethral resistance increasing effect was measured by the aforementioned method.

[2] = target: T1, human serotonin transporter (Homo sapiens, UniProt P31645); experiment: Inhibitory action on human serotonin transporter ([3H]-5-hydroxytryptamine uptake in CHO cells); assay type: cell-based; conditions: relative to inhibitory activity of 10 μM Paroxetine as 100%, read-out: inhibitory rate (%)
T1 construct: expressed in transfected cells
Description: (2) Preparation of Human Monoamine Expressing Cell
(§1) Human serotonin transporter cDNA was amplified from human brain cDNA library by PCR, and inserted into pCRII-TOPO vector (manufactured by Invitrogen). The base sequence was confirmed and modified, and subcloned to pcDNA3.1 vector (manufactured by Invitrogen), whereby a human serotonin transporter expression plasmid was constructed. Human norepinephrine transporter cDNA was purchased from Invitrogen, and the base sequence was confirm and modified, and subcloned to pcDNA3.1 vector, whereby a human norepinephrine transporter expression plasmid was constructed. […]
(§2) The cultured cells that reached almost confluent were rinsed with PBS (Invitrogen), detached with Trypsin/EDTA (Invitrogen), and collected by a centrifugal operation. The obtained cells were counted, and diluted to 3×10^5 cells per 1 mL medium, the mixture was dispensed to a 96 well white plate (Corning) at 100 μL per well, and cultured overnight in a CO2 incubator.
(§3) Then, an assay buffer (126 mM NaCl, 4.95 mM KCl, 1.26 mM KH2PO4, 1.26 mM MgSO4, 10 mM HEPES, 2.32 mM CaCl2, 5.52 mM Glucose, 0.5% BSA) was prepared, the medium in the cell plate was removed and the assay buffer was added by 80 μL. […] The radioactivity was measured by TopCount (PerkinElmer). […]

[3] = target: human norepinephrine transporter (Homo sapiens, UniProt P23975); experiment: Inhibitory action on human norepinephrine transporter ([3H]-norepinephrine uptake in CHO cells); assay type: cell-based; conditions: relative to inhibitory activity of 10 μM DMI as 100%, read-out: inhibitory rate (%)
Description: as §1
as §2, with “medium, and” for “medium,”
as §3

[4] = target: T2, human dopamine transporter (Homo sapiens, UniProt Q01959); experiment: Inhibitory action on human dopamine transporter ([3H]-dopamine uptake in CHO cells); assay type: cell-based; conditions: relative to inhibitory activity of 100 μM Nomifensine as 100%, read-out: inhibitory rate (%)
T2 construct: expressed in transfected cells
Description: (1) Construction of Human Dopamine Transporter Expression Plasmid
SRα promoter contained in pTB1411 described in JP-A-H5-076385 was cleaved with restriction enzyme HindIII (manufactured by TAKARA BIO INC.), blunt-ended, further cleaved with restriction enzyme EcoRI (manufactured by TAKARA BIO INC.), and fragmented. On the other hand, pCI vector was cleaved with restriction enzyme BglII (manufactured by TAKARA BIO INC.), blunt-ended with T4 DNA polymerase, and further cleaved with restriction enzyme EcoRI (manufactured by TAKARA BIO INC.). Into this site was inserted an SRα promoter fragment to give pCI-SRa. […]
as §2, with “One day before the assay, the cultured” for “The cultured”, “medium, and” for “medium,”
as §3, with “On the day of the test,” for “Then,”

T2 sequence (Q01959 whole entry): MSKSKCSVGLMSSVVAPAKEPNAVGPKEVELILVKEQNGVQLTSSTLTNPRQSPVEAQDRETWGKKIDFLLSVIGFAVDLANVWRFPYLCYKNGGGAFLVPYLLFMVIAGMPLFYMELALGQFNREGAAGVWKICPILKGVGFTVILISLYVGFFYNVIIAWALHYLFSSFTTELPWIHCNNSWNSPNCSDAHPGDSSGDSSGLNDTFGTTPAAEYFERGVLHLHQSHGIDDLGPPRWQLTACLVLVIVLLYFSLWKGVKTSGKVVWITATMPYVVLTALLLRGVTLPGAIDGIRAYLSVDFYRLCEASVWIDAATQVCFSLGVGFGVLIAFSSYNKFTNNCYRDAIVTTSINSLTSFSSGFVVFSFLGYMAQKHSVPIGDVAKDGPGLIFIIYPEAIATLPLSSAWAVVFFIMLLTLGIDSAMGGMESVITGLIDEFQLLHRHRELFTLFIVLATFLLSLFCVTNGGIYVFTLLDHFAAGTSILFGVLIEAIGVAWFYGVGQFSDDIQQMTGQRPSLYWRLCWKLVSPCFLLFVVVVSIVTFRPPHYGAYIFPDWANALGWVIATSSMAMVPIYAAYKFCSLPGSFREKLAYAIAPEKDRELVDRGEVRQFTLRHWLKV
human norepinephrine transporter, sequence (P23975 whole entry): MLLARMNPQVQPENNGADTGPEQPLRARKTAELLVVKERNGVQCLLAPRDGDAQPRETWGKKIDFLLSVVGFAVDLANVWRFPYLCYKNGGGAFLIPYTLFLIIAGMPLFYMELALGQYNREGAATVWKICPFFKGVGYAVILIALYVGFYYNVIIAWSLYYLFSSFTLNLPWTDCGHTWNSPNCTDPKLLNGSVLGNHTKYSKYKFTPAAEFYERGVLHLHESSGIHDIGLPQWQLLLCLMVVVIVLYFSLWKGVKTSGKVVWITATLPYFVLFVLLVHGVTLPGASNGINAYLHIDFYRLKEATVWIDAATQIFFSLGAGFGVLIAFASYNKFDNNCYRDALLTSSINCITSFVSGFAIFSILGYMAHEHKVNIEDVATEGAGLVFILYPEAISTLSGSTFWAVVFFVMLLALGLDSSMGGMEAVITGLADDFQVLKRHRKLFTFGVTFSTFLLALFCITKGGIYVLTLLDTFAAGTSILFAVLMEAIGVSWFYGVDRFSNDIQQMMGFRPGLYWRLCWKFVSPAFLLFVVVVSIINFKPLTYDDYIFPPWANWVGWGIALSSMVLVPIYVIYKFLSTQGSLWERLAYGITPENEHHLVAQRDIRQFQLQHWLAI
T1 sequence (P31645 whole entry): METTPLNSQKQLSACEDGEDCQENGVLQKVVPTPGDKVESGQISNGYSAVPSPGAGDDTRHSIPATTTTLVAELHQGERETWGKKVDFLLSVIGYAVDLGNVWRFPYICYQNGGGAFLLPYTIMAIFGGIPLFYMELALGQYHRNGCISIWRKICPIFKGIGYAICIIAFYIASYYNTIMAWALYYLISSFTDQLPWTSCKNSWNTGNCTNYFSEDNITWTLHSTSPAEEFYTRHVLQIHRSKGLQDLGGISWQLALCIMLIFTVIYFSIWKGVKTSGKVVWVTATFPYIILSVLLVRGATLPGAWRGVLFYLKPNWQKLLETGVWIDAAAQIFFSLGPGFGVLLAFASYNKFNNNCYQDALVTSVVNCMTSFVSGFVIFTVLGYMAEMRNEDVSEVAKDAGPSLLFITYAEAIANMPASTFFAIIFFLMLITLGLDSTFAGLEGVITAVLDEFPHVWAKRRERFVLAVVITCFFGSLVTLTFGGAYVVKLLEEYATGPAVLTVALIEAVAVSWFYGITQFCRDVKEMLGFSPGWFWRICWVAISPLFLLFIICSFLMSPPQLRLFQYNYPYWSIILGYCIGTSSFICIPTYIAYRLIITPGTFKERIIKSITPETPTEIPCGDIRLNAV

Row | SMILES | urethral resistance increasing effect (LPP Post value minus Pre value) [1] | inhibition at 1 µM ([2]; compound 1 μM) [%] | inhibition at 10 µM ([2]; compound 10 μM, CHO cells expressing human serotonin transporter) [%] | inhibition at 1 µM ([3]; compound 1 μM) [%] | inhibition at 10 µM ([3]; compound 10 μM) [%] | inhibition at 1 µM ([4]; compound 1 μM) [%] | inhibition at 10 µM ([4]; compound 10 μM) [%]
1 | CC(=O)NC[C@H]1CNCCO[C@@H]1c1ccc(Cl)c(Cl)c1 (racemic) [Example 6, N-{[(6RS,7SR)-7-(3,4-dichlorophenyl)-1,4-oxazepan-6-yl]methyl}acetamide monohydrochloride] | dose-dependent and significant urethral resistance increasing effect |  |  |  |  |  | 
2 | OC[C@H]1NCCOC[C@@H]1c1ccc(Cl)c(Cl)c1 (racemic) [Example 14, [(5RS,6SR)-6-(3,4-dichlorophenyl)-1,4-oxazepan-5-yl]methanol monohydrochloride] |  | 31 | 79 | 98 | 100 | 87 | 99
